From ChEMBL document CHEMBL1149237, “Design and synthesis of benzofused heterocyclic RXR modulators” (Bioorg Med Chem Lett, 2004)

Key:
[1] = biological target: T1, Peroxisome proliferator-activated receptor gamma (Homo sapiens) (UniProt P37231); assay: Ratio between effective concentrations (Agonist) in PPAR gamma; format: functional; details: Cercopithecidae
T1 sequence (whole entry): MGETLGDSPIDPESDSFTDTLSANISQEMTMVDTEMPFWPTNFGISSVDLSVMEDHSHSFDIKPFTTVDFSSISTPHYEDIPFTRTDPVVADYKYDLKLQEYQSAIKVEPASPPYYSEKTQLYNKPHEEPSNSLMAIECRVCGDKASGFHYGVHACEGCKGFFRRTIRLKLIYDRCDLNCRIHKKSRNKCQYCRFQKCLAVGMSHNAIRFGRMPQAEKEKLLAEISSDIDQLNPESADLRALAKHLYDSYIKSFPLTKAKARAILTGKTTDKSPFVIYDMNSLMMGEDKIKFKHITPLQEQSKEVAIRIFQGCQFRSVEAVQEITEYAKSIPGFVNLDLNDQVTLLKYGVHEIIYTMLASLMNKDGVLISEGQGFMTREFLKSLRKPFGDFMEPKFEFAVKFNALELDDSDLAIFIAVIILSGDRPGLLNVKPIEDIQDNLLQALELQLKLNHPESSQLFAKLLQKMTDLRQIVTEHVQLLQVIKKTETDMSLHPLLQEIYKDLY

[2] = biological target: T2, Retinoic acid receptor RXR-alpha (Homo sapiens) (UniProt P19793); assay: Antagonistic efficacy in CV-1 cells (LGD1069 was used as reference); format: functional, cell-based; details: Cercopithecidae
T2 sequence (whole entry): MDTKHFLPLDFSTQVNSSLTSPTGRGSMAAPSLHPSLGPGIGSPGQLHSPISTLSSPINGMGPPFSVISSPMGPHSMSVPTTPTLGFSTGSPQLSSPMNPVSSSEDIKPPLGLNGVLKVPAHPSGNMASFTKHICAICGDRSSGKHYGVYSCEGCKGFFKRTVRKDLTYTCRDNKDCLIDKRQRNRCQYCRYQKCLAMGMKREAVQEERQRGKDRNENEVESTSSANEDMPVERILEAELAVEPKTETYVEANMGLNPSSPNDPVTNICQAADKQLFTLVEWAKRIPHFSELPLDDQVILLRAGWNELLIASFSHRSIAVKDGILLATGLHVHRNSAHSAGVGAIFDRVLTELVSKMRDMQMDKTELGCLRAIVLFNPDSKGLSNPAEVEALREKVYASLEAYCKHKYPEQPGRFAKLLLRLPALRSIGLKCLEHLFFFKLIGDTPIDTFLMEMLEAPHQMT

[3] = biological target: T2, Retinoic acid receptor RXR-alpha (Homo sapiens); assay: Agonistic efficacy in CV-1 cells (LGD1069 was used as reference); format: functional, cell-based; details: Cercopithecidae
[4] = biological target: T3, Retinoic acid receptor RXR-alpha (Homo sapiens, UniProt P19793); assay: Effective concentration required for agonistic activity in CV-1 cells expressing RXR-alpha; format: functional, cell-based, Cercopithecidae
T3 sequence (P19793 whole entry): T2 sequence (whole entry)

Cercopithecidae = assay: RAR agonist synergy calculated using 3 nM of TTNPB; format: functional
[5] = biological target: T1, Peroxisome proliferator-activated receptor gamma (Homo sapiens); assay: Ratio between agonistic efficacy in PPAR gamma; format: functional; details: Cercopithecidae
[6] = biological target: T4, Retinoic acid receptor gamma (Homo sapiens, UniProt P13631); assay: Ability to displace [3H]ATRA from Retinoic acid receptor gamma in CV-1 cells; format: cell-based, Cercopithecidae
T4 sequence (P13631 whole entry): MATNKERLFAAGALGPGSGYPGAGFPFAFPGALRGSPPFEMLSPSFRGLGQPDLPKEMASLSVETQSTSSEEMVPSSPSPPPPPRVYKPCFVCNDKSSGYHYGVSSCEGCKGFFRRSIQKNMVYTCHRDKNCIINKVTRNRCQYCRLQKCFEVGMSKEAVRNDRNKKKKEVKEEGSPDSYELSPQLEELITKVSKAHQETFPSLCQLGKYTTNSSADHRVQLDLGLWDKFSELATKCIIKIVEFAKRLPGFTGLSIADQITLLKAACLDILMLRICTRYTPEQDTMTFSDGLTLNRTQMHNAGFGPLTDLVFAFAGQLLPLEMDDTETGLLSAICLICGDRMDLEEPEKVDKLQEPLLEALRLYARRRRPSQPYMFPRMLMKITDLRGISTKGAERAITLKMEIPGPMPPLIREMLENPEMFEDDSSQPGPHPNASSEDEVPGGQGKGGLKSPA

[7] = biological target: T3, Retinoic acid receptor RXR-alpha; assay: Effective concentration for antagonistic activity against RXR-alpha expressed in CV-1 cells; format: functional, cell-based, Cercopithecidae
[8] = biological target: T3, Retinoic acid receptor RXR-alpha; assay: Ability to displace [3H]9-cis-RA from Retinoid X receptor alpha in CV-1 cells; format: cell-based, Cercopithecidae

Compound	Ratio [1]	Efficacy [2] [%]	Efficacy [3] [%]	EC50 [4] [nM]	Ratio [5]	Ki [6] [nM]	EC50 [7] [nM]	Ki [8] [nM]	Synergy (Cercopithecidae)
CCOc1c(-c2csc3cnc(/C(C)=C/C(=O)O)cc23)cc(C(C)C)cc1C(C)C	347	9	15.1	1440	127	–	–	–	2
CCOc1c(-c2[nH]nc3ccc(/C(C)=C/C(=O)O)cc23)cc(C(C)C)cc1C(C)C	118	7	43	–	168	–	–	–	2.4
C/C(=C\C(=O)O)c1ccc2[nH]cc(-c3cc(C(C)(C)C)cc(C(C)(C)C)c3OCC(F)F)c2c1	21.9	41	15	65	233	> 10000	66.3	1.6	3
C/C(=C\C(=O)O)c1ccc2scc(-c3cc(C(C)C)cc(C(C)C)c3O)c2c1	384	0	37.4	1440	112	> 10000	–	131	3.5
CCCCOc1c(-c2cccc3[nH]c(/C(C)=C/C(=O)O)cc23)cc(C(C)C)cc1C(C)C	893	64	0.51	–	24.9	–	3980	–	1.1
C/C(=C\C(=O)O)c1ccc2scc(-c3cc(C(C)C)cc(C(C)C)c3OCCCF)c2c1	1480	48	1.78	–	123	> 10000	4150	395	1.5
CCOc1c(\C(C)=C/C=C/C(C)=C/C(=O)O)cc(C(C)C)cc1C(C)C	8	7	58	–	38	> 10000	–	–	5
CCCOc1c(-c2c[nH]c3ccc(/C(C)=C/C(=O)O)cc23)cc(C(C)(C)C)cc1C(C)(C)C	7	81	7	–	173	> 10000	30.1	1.6	3.4
CCCCOc1c(-c2c[nH]c3ccc(/C(C)=C/C(=O)O)cc23)cc(C(C)C)cc1C(C)C	15	87	1.7	–	256	> 10000	21.1	7.4	1.3
C/C(=C/C=C/C(C)=C/C(=O)O)c1cc(C(C)(C)C)cc(C(C)(C)C)c1OCCCF	3.1	84	4	–	60	> 10000	6.4	2.7	1.4
CCCCOc1c(-c2c[nH]c3ccc(/C(C)=C/C(=O)O)cc23)cc(C(C)(C)C)cc1C(C)(C)C	8.9	93	1	–	105	> 10000	26.4	3.2	2.3

More lines, main results first:

Ratio [1]	Efficacy [2] [%]	Efficacy [3] [%]	EC50 [4] [nM]	Ratio [5]	Ki [6] [nM]	EC50 [7] [nM]	Ki [8] [nM]	Compound	Synergy (Cercopithecidae)
1890	91	2	–	12	> 10000	4	–	CCCCOc1c(\C(C)=C/C=C/C(C)=C/C(=O)O)cc(C(C)C)cc1C(C)C	1
306	24	36	1020	65	> 10000	–	648	CCOc1c(-c2noc3ccc(/C(C)=C/C(=O)O)cc23)cc(C(C)C)cc1C(C)C	1.7
224	0	65.4	914	114	> 10000	–	29.6	COc1c(-c2csc3ccc(/C(C)=C/C(=O)O)cc23)cc(C(C)C)cc1C(C)C	2.7
–	–	–	235	–	> 10000	–	69.2	CCOc1c(-c2n[nH]c3ccc(/C(C)=C/C(=O)O)cc23)cc(C(C)C)cc1C(C)C	–
612	86	2.52	–	49	> 10000	1530	740	CCCCOc1c(-c2cn(C)c3ccc(/C(C)=C/C(=O)O)cc23)cc(C(C)C)cc1C(C)C	2.5
425	9	7.93	–	81.8	> 10000	–	2080	CCOc1c(-c2cnc3ccc(/C(C)=C/C(=O)O)cn23)cc(C(C)C)cc1C(C)C	1.5
